From article PMC8343220, “The selectivity of α‐adrenoceptor agonists for the human α1A, α1B, and α1D‐adrenoceptors” (Pharmacology Research & Perspectives, 2021)

Tests used:
human α1A‐adrenoceptor [1] = molecular target: T1, human α1A‐adrenoceptor (Homo sapiens, UniProt P35348); experiment: ^3H‐prazosin whole‐cell radioligand binding, CHO‐α1A cells
T1 construct: expressed in transfected cells; host or cells: CHO-K1
T1 sequence (P35348 1-466): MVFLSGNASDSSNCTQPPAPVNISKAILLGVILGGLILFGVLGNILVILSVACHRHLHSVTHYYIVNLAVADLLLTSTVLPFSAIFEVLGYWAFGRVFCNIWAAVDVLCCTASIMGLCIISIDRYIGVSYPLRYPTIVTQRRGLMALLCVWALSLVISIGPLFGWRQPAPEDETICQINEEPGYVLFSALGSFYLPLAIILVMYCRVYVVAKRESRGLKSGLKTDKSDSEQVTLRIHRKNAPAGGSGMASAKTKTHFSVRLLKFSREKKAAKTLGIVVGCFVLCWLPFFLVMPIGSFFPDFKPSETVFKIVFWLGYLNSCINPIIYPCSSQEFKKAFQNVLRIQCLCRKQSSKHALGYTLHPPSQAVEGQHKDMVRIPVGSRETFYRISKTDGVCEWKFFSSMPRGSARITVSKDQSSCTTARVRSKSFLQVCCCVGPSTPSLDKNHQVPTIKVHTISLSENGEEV

human α1B‐adrenoceptor [2] = molecular target: T2, human α1B‐adrenoceptor (Homo sapiens, UniProt P35368); experiment: ^3H‐cAMP accumulation, CHO‐α1B cells; assay type: cell-based; conditions: CHO‐α1B cells; for cAMP accumulation % forskolin: % forskolin maximum response; for EC50: read-out: cAMP accumulation Log EC50 (converted)
T2 construct: expressed in transfected cells; host or cells: CHO-K1
T2 sequence (P35368 1-520): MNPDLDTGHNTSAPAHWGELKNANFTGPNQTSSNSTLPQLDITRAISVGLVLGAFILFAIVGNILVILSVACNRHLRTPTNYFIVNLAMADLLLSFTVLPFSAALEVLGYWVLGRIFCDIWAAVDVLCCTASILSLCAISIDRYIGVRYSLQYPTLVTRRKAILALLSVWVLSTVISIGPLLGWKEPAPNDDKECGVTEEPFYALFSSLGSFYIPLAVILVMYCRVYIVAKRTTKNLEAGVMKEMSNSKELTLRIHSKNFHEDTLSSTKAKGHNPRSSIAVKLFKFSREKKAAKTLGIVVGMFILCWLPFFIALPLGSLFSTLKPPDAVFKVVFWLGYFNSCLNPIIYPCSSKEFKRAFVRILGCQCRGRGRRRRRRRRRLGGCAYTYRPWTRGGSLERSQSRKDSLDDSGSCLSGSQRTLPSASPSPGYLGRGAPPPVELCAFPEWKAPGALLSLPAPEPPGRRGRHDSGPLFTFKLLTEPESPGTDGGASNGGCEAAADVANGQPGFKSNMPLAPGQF

human α1B‐adrenoceptor [3] = molecular target: T2, human α1B‐adrenoceptor; experiment: ^3H‐prazosin whole‐cell radioligand binding, CHO‐α1B cells
human α1B‐adrenoceptor [4] = molecular target: T2, human α1B‐adrenoceptor; experiment: ^3H‐cAMP accumulation in the presence of 10 μM forskolin, CHO‐α1B cells; assay type: cell-based; conditions: CHO‐α1B cells; for EC50: in presence of forskolin, read-out: cAMP accumulation (in presence of forskolin) Log EC50 (converted)
human α1B‐adrenoceptor [5] = molecular target: T2, human α1B‐adrenoceptor; experiment: Intracellular free calcium mobilization, CHO‐α1B cells; assay type: cell-based
[6] = tested on: parental CHO cell line without any transfected receptors; experiment: Forskolin‐stimulated cAMP accumulation, parent CHO cells without transfected receptors; assay type: cell-based, Chinese hamster; conditions: CHO cells without transfected receptors
[7] = molecular target: T3, human α1D‐adrenoceptor (full length) (Homo sapiens, UniProt P25100); experiment: ^3H‐prazosin whole‐cell radioligand binding, CHO‐α1D cells
T3 construct: human α1D‐adrenoceptor (full length) were used; expressed in transfected cells; host or cells: CHO-K1
T3 sequence (P25100 1-572): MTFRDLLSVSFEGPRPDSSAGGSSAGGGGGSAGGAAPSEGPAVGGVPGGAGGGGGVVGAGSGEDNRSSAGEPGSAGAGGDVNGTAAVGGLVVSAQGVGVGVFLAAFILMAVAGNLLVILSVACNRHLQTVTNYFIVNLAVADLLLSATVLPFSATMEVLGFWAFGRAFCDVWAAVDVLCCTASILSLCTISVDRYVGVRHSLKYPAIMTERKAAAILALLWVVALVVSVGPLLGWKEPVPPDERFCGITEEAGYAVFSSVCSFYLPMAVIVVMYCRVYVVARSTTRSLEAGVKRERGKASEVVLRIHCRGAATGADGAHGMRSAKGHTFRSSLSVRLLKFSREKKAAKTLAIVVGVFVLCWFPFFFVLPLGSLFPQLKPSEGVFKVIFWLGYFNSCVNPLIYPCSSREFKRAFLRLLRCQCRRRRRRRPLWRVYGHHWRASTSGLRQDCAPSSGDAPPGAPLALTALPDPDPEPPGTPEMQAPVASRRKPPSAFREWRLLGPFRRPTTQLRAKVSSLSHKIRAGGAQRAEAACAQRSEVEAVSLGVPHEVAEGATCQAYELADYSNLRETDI

[8] = tested on: parental CHO cell line without any transfected receptors; experiment: ERK1/2‐phosphorylation, parent CHO cells without transfected receptors; assay type: cell-based, Chinese hamster
human α1A‐adrenoceptor [9] = molecular target: T1, human α1A‐adrenoceptor; experiment: ^3H‐cAMP accumulation, CHO‐α1A cells; assay type: cell-based; conditions: CHO‐α1A cells; for cAMP accumulation % forskolin: % of 10 µM forskolin response
[10] = molecular target: T3, human α1D‐adrenoceptor (full length); experiment: ERK1/2‐phosphorylation (Surefire Alphascreen), CHO‐α1D cells; assay type: cell-based
human α1B‐adrenoceptor [11] = molecular target: T2, human α1B‐adrenoceptor; experiment: ERK1/2‐phosphorylation (Surefire Alphascreen), CHO‐α1B cells; assay type: cell-based
[12] = tested on: parental CHO cell line without any transfected receptors; experiment: Intracellular calcium mobilization, parent CHO cells without transfected receptors; assay type: cell-based, Chinese hamster; conditions: Cricetulus griseus; CHO cells without transfected receptors; response at maximum concentration used (c2), as % of ionomycin (10μM) response; mean ± s.e.m.; read-out: Intracellular calcium release % ionomycin
human α1A‐adrenoceptor [13] = molecular target: T1, human α1A‐adrenoceptor; experiment: ERK1/2‐phosphorylation (Surefire Alphascreen), CHO‐α1A cells; assay type: cell-based
human α1A‐adrenoceptor [14] = molecular target: T1, human α1A‐adrenoceptor; experiment: ^3H‐cAMP accumulation in the presence of 10 μM forskolin, CHO‐α1A cells; assay type: cell-based; conditions: CHO‐α1A cells
human α1A‐adrenoceptor [15] = molecular target: T1, human α1A‐adrenoceptor; experiment: Intracellular free calcium mobilization, CHO‐α1A cells; assay type: cell-based
[16] = molecular target: T3, human α1D‐adrenoceptor (full length); experiment: Intracellular free calcium mobilization, CHO‐α1D cells; assay type: cell-based
[17] = fold increase of the forskolin response
[18] = read-out: Intracellular calcium release Log EC50 (converted)
[19] = read-out: ERK1/2‐phosphorylation Log EC50 (converted)

With `Cc1cccc(C(C)c2cnc[nH]2)c1C` (stereo not drawn) [Medetomidine] the “Affinity selectivity ratio α1A vs α1B” value (human α1A‐adrenoceptor [1]) was 6.2 fold, the Kd (human α1A‐adrenoceptor [1]; Log KD α1A, ^3H‐prazosin whole cell binding) was 2340 nM and the “cAMP accumulation % forskolin” value (human α1B‐adrenoceptor [2]) was 4.6 ± 0.9%. For the same molecule, the EC50 (human α1B‐adrenoceptor [2]) was 115 nM, the Kd (human α1B‐adrenoceptor [3]; Log KD α1B, ^3H‐prazosin whole cell binding) was 14500 nM and the Kd (human α1B‐adrenoceptor [3]; Log KD, ^3H‐prazosin binding) was 14500 nM. The “cAMP accumulation (in presence of forskolin) Fold increase” value (human α1B‐adrenoceptor [4]; [17]) was 1.52 ± 0.04 fold, the EC50 (human α1B‐adrenoceptor [4]) was 93.3 nM and the “Intracellular calcium release % ionomycin” value (human α1B‐adrenoceptor [5]) was 43.0 ± 3.4%. For the same molecule, the “Log efficacy ratio KD /EC50” value (human α1B‐adrenoceptor [5]) was 2.09, the EC50 (human α1B‐adrenoceptor [5]; [18]) was 117 nM and the “cAMP accumulation (in presence of forskolin) % forskolin-stim cAMP at 100μM” value ([6]; response at 100μM only, EC50 not obtainable, % of forskolin-stimulated cAMP) was 88.4 ± 3.2%. The “Affinity selectivity ratio α1A vs α1D” value [7] was 1.1 fold, the “Affinity selectivity ratio α1B vs α1D” value [7] was 6.8 fold and the Kd ([7]; 3H‐prazosin binding Log KD) was 2140 nM. The Kd ([7]; Log KD α1D, ^3H‐prazosin whole cell binding) was 2140 nM, the Emax at 100 µM ([8]; Cricetulus griseus, CHO, read-out: ERK1/2-phosphorylation % PDBu at 100μM) was 7.9 ± 3.8% and the EC50 (human α1A‐adrenoceptor [9]; 5 h, read-out: cAMP accumulation Log EC50 (converted)) was 646 nM. For the same molecule, the “cAMP accumulation % forskolin” value (human α1A‐adrenoceptor [9]) was 46.3 ± 5.2%, the “ERK1/2‐phosphorylation % PDBu” value [10] was 22.6 ± 5.1% and the EC50 [10, 19] was 7240 nM. For the same molecule, the “ERK1/2‐phosphorylation % PDBu” value (human α1B‐adrenoceptor [11]) was 55.2 ± 5.3%, the EC50 (human α1B‐adrenoceptor [11]; [19]) was 138 nM and the Emax [12] was 11.7 ± 2.4%. The “ERK1/2‐phosphorylation % PDBu” value (human α1A‐adrenoceptor [13]) was 85.8 ± 3.3%, the EC50 (human α1A‐adrenoceptor [13]; [19]) was 31.6 nM and the EC50 (human α1A‐adrenoceptor [14]; 10 μM forskolin, read-out: cAMP accumulation (in presence of forskolin) Log EC50 (converted)) was 126 nM. The “cAMP accumulation (in presence of forskolin) Fold increase” value (human α1A‐adrenoceptor [14]; [17]) was 2.12 ± 0.09 fold, the “Intracellular calcium release % ionomycin” value (human α1A‐adrenoceptor [15]) was 57.2 ± 1.8% and the “Log efficacy ratio KD /EC50” value (human α1A‐adrenoceptor [15]) was 2.06. The EC50 (human α1A‐adrenoceptor [15]; [18]) was 20.4 nM and the “Intracellular calcium release % Ionomycin at 100 µM” value [16] was 11.5 ± 2.3%.
For `Clc1cccc(Cl)c1N=C1NCCN1` [Clonidine], the “cAMP accumulation % forskolin” value (human α1B‐adrenoceptor [2]) was 7.5 ± 0.8%, the EC50 (human α1B‐adrenoceptor [2]) was 251 nM and the Kd (human α1B‐adrenoceptor [3]; Log KD α1B, ^3H‐prazosin whole cell binding, CHO‐α1B cells, given as log KD (negative), mean ± SEM) was 7410 nM. For the same molecule, the Kd (human α1B‐adrenoceptor [3]; Log KD, ^3H‐prazosin binding, CHO‐α1B cells, whole‐cell binding (from Table 1), given as log KD (negative numbers)) was 7410 nM, the EC50 (human α1B‐adrenoceptor [4]) was 44.7 nM and the “Intracellular calcium release % ionomycin” value (human α1B‐adrenoceptor [5]) was 45.4 ± 2.1%. The EC50 (human α1B‐adrenoceptor [5]; Intracellular calcium release Log EC50, CHO‐α1B cells, given as log EC50 (negative numbers)) was 17 nM, the “cAMP accumulation (in presence of forskolin) Log EC50” value ([6]; in presence of forskolin) was “No response” and the Kd ([7]; 3H‐prazosin binding Log KD, CHO‐α1D cells, whole‐cell binding (from Table 1), log values given negative) was 2570 nM. For the same molecule, the Kd ([7]; Log KD α1D, ^3H‐prazosin whole cell binding, CHO‐α1D cells, given as log KD (negative), mean ± SEM, 'early plateau' = specific binding not fully inhibited) was 2570 nM, the “ERK1/2-phosphorylation % PDBu” value ([8]; CHO cells without transfected receptors, maximal response as % of PDBu (10μM) response, mean ± s.e.m.) was “No response” and the “cAMP accumulation % forskolin” value (human α1A‐adrenoceptor [9]) was 33.8 ± 3.2%. For the same molecule, the “ERK1/2‐phosphorylation % PDBu at 100 µM” value [10] was 6.1 ± 1.3%, the “ERK1/2‐phosphorylation % PDBu” value (human α1B‐adrenoceptor [11]) was 60.6 ± 7.6% and the EC50 (human α1B‐adrenoceptor [11]; ERK1/2‐phosphorylation Log EC50, CHO‐α1B cells, for bi‐phasic responses the initial stimulatory part) was 89.1 nM. The Emax [12] was 1.6 ± 1%, the “ERK1/2‐phosphorylation % PDBu” value (human α1A‐adrenoceptor [13]) was 85.7 ± 4.7% and the “Intracellular calcium release % ionomycin” value (human α1A‐adrenoceptor [15]) was 51.6 ± 1.2%. The “Intracellular calcium release % Ionomycin at 100 µM” value [16] was 8.0 ± 0.5%.
